Source: US8013006B2
Where two headings read alike, the source gives them in different places.

Experiments:
HCV replicon = assay: microbe, parasite or virus in culture; type: cell-based
wild-type poliovirus = type: cell-based; conditions: Hela cells, MOI 0.1, one day; for WT-PV CPE (1 μM)*: 1 μM compound; for WT-PV CPE (10 μM)*: 10 μM compound; for WT-PV CPE (100 μM) *: 100 μM compound
[1] = system: cap-dependent translation; assay: Western blot of Fluc reporter protein in pLuc cells; type: cell-based, human; conditions: 20 hours
[2] = Replicon IC50 values are determined by firefly luciferase signal, bicistronic replicon, 2 days, read-out: Replicon IC5Os
[3] = Hepatitis C virus, 48 h, read-out: Replicon IC5Os
[4] = Hepatitis C virus, 48 h, read-out: Replicon IC5Os μM

| Structure (SMILES) | melting point [°C] | IC50 (HCV replicon; [4]) [µM] | other results |
| --- | --- | --- | --- |
| COc1ccc(-n2cc(C#N)c3ccc(OC)cc32)cc1 [Compound 4] |  |  | IC50 (HCV replicon; [2]): > 2 µM; WT-PV CPE (1 μM)* (wild-type poliovirus): 1; WT-PV CPE (10 μM)* (wild-type poliovirus): 2; WT-PV CPE (100 μM) * (wild-type poliovirus): 3 |
| CCn1cc(C#N)c2ccc(OC(C)C)cc21 [Compound 10] |  |  | IC50 (HCV replicon; [2]): > 2 µM; WT-PV CPE (1 μM)* (wild-type poliovirus): 2; WT-PV CPE (10 μM)* (wild-type poliovirus): 2; WT-PV CPE (100 μM) * (wild-type poliovirus): 3 |
| CCn1c(-c2ccc(OC)cc2)c(C#N)c2ccc(OC)cc21 [Compound 19] |  |  | IC50 (HCV replicon; [2]): > 2 µM; WT-PV CPE (1 μM)* (wild-type poliovirus): 1; WT-PV CPE (10 μM)* (wild-type poliovirus): 2; WT-PV CPE (100 μM) * (wild-type poliovirus): 3 |
| COc1ccc2c(C#N)c(C)n(-c3ccc4c(c3)OCO4)c2c1 [Compound 24] |  |  | IC50 (HCV replicon; [2]): 0.5 to 2 µM; WT-PV CPE (1 μM)* (wild-type poliovirus): 2; WT-PV CPE (10 μM)* (wild-type poliovirus): 2; WT-PV CPE (100 μM) * (wild-type poliovirus): 3 |
| CCCCNC(=O)Nc1ccc(-c2c(C#N)c3ccc(OC)cc3n2CCCC)cc1 [Compound 750] | 173 to 174 |  | IC50 (HCV replicon; [3]): < 0.5 µM |
| CCCCn1c(-c2ccc(NC(=O)NC(C)C)cc2)c(C#N)c2ccc(OC)cc21 [Compound 751] | 159 to 162 |  | IC50 (HCV replicon; [3]): 0.5 to 2 µM |
| CCn1c(-c2ccc3c(c2)N(S(C)(=O)=O)CC3)c(C#N)c2ccc(OC)cc21 [Compound 752] | 198 to 202 |  | IC50 (HCV replicon; [3]): 0.5 to 2 µM |
| CCn1c(-c2ccc3c(c2)N(S(=O)(=O)CC)CC3)c(C#N)c2ccc(OC)cc21 [Compound 753, 1′-ethanesulfonyl-1-ethyl-6-methoxy-2′,3′-dihydro-1H,1H′-[2,6′]biindolyl-3-carbonitrile] | 157 to 161 |  | IC50 (HCV replicon; [3]): < 0.5 µM |
| CCn1c(-c2ccc(N)cc2)c(C#N)c2ccc(OC(C)C)cc21 [Compound 758] | 149 to 153 |  | IC50 (HCV replicon; [3]): < 0.5 µM |
| CCn1c(-c2ccc(NC(=O)CCc3ccccc3)cc2)c(C#N)c2ccc(OC(C)C)cc21 [Compound 762] | 190 to 193 |  | IC50 (HCV replicon; [3]): < 0.5 µM |
| CCn1c(-c2ccc(NC(=O)c3ccccc3)cc2)c(C#N)c2ccc(OC(C)C)cc21 [Compound 763] | 209.2 to 209.7 |  | IC50 (HCV replicon; [3]): < 0.5 µM |
| CCn1c(-c2ccc(NC(=O)c3ccc(F)cc3)cc2)c(C#N)c2ccc(OC(C)C)cc21 [Compound 764] | 213.5 to 231.7 | < 0.5 |  |
| CCOc1ccc2c(C#N)c(-c3ccc(NC(=O)NCCCl)cc3)n(CC)c2c1 [Compound 774] | 205 to 206 | 0.5 to 2 |  |
| COc1ccc2c(C#N)c(-c3cccc(N4CCCS4(=O)=O)c3)n(C(C)C)c2c1 [Compound 784] | 245 to 246 | 0.5 to 2 |  |
| CCCS(=O)(=O)Nc1ccc(-c2c(C#N)c3cc(OC)ccc3n2CC)cc1 [Compound 789] | 154 to 156 | < 0.5 |  |
| CCn1c(-c2ccc(NS(=O)(=O)C3CC3)cc2)c(C#N)c2cc(OC)ccc21 [Compound 791] | 149 to 152 | < 0.5 |  |

| Structure (SMILES) | melting point [°C] | IC50 (HCV replicon; [4]) [µM] | other results |
| --- | --- | --- | --- |
| CCn1c(-c2ccc(NC(=O)OC)cc2)c(C#N)c2cc(OC)ccc21 [Compound 792] | 182 to 185 | < 0.5 |  |
| CCOC(=O)Nc1ccc(-c2c(C#N)c3cc(OC)ccc3n2CC)cc1 [Compound 793] | 154 to 155 | < 0.5 |  |
| CCCOC(=O)Nc1ccc(-c2c(C#N)c3cc(OC)ccc3n2CC)cc1 [Compound 794] | 149 to 151 | < 0.5 |  |
| CCn1c(-c2ccc(NC(=O)OC(C)C)cc2)c(C#N)c2cc(OC)ccc21 [Compound 795] | 183 to 185 | < 0.5 |  |
| CCn1c(-c2ccc(NC(=O)C3CCC3)cc2)c(C#N)c2ccc(OC)cc21 [Compound 801] | 199 to 219 | < 0.5 |  |
| CCn1c(-c2ccc(NC(=O)Cc3ccccc3)cc2)c(C#N)c2ccc(OC)cc21 [Compound 802] | 196 to 198 | 0.5 to 2 |  |
| CCn1c(-c2ccc(N3CCCC3=O)cc2)c(C#N)c2ccc(OC(F)F)cc21 [Compound 807] | 171 to 172 | < 0.5 |  |
| C=CCNC(=O)Nc1cccc(-c2c(C#N)c3ccc(OC)cc3n2Cc2ccccc2)c1 [Compound 818] | 158 to 159 | < 0.5 |  |
| CC(C)OC(=O)Nc1ccc(-c2c(C#N)c3ccc(OC(F)F)cc3n2C2CCC2)cc1 [Compound 822] | 144 to 145 | 0.5 to 2 |  |
| CCCn1c(-c2ccc(NS(=O)(=O)C3CC3)cc2)c(C#N)c2ccc(OC(F)F)cc21 [Compound 827] | 189 to 191 | < 0.5 |  |
| CCOc1ccc(-c2c(C#N)c3ccc(NS(C)(=O)=O)cc3n2CC)cc1 [Compound 834] | 179 to 180 | 0.5 to 2 |  |
| CCCn1c(-c2ccc(NC(=O)NCCc3ccccc3)cc2)c(C#N)c2ccc(OC)cc21 [Compound 848] | 193 to 194 | 0.5 to 2 |  |
| CCCn1c(-c2ccc(NS(=O)(=O)CCCCl)cc2)c(C#N)c2ccc(OC)cc21 [Compound 850] | 179 to 180 | 0.5 to 2 |  |
| CCCn1c(-c2ccc(NS(=O)(=O)C3CC3)cc2)c(C#N)c2ccc(OC)cc21 [Compound 851] | 186 to 187 | 0.5 to 2 |  |
| CCn1c(-c2ccc(NC(=O)C3CCC3)cc2)c(C#N)c2cc(OC)ccc21 [Compound 859] | 191 to 192 | 0.5 to 2 |  |
| COc1ccc(C[C@H](N)C(=O)N[C@H]2[C@@H](O)[C@H](n3cnc4c(N(C)C)ncnc43)O[C@@H]2CO)cc1 [puromycin] |  |  | luciferase reporter protein level (cap-dependent), Western blot [1]: inhibited |
